From ChEMBL document CHEMBL4052608, “Hes1-Binding Compounds Isolated by Target Protein Oriented Natural Products Isolation (TPO-NAPI)” (2017) come the findings set out here.

In assay [1] the test system is MEB5. Description: Induction of neuronal differention in mouse MEB5 neurospheres at 10 uM after 4 days by DAPI dye-based fluorescence confocal laser scaning microscopic analysis. It counts as functional.
The subject of assay [2] is MEB5. Description: Increase in neuronal differention in mouse MEB5 neurospheres at 10 uM after 4 days by DAPI dye-based fluorescence confocal laser scaning microscopic analysis. It counts as functional.
For assay [3], the target named is T1, Transcription factor HES-1 (Rattus norvegicus) (UniProt Q04666).
T1 sequence (whole entry): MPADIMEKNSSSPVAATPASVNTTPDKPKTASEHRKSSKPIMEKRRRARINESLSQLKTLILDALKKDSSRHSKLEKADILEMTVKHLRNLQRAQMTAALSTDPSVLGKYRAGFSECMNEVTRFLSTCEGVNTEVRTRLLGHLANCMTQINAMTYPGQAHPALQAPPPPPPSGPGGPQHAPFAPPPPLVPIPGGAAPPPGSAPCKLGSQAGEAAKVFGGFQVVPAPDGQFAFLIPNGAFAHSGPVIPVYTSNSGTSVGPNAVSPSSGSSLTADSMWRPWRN
Description: Binding affinity to rat GST-tagged truncated HES1 (47 to 281 residues) expressed in Escherichia coli JM109 after 2 hrs by HPLC based bead assay.

Assay [4] addresses T1, Transcription factor HES-1 (Rattus norvegicus). Kind of assay: Binding affinity to rat GST-tagged truncated HES1 (1 to 95 residues) expressed in Escherichia coli JM109 after 2 hrs by HPLC based bead assay.
For assay [5] the target is unchanged. Description: Binding affinity to rat GST-tagged truncated HES1 (151 to 281 residues) expressed in Escherichia coli JM109 after 2 hrs by HPLC based bead assay.
For assay [6] the target is unchanged. Kind of assay: Binding affinity to rat GST-tagged truncated HES1 (47 to 156 residues) expressed in Escherichia coli JM109 after 2 hrs by HPLC based bead assay.
In assay [7] the test system is MEB5. Description: Induction of neuronal differention in mouse MEB5 neurospheres at 100 uM after 4 days by DAPI dye-based fluorescence confocal laser scaning microscopic analysis. It counts as functional, cell-based.

Active and inactive are the calls of the source. The calls are words filed in the database; no cut-off is given here.

As to `CC1=C\C=C\C=C\CC(C)NC(=O)/C=C/C=C/C=C/C(C)C(O)C(O)C(O)CC(O)/C=C\C=C\1` (centres undefined), the Activity is 30% with MEB5 [1] and 17% in the assay with MEB5 [2]. Moreover, the outcome in assay [3], in assay [4], in assay [5] and in assay [6] was Active.
For the compound `CCCC(CCC)C(=O)O`, in the assay with MEB5 [7], the result was Active.
Take `C/C=C/C=C/C=C/[C@@H]1NCC[C@@H](O)[C@H]1C`: the results for the Activity in the assay on MEB5 [1] and with MEB5 [2] were 35% and 34%, respectively.
